Assay results reported in publication PMC5530816, “Anticancer metallohelices: nanomolar potency and high selectivity” (Chemical Science, 2015).

Tests used:
Format in all cases: cell-based
[1] = test system: methicillin-resistant Staphylococcus aureus, USA300 JE2; experiment: MIC by broth dilution, MRSA; settings: 20 h at 37 °C in Müller–Hinton broth
Method: (§1) The compounds were screened against cultures of the gram-positive bacterium methicillin-resistant Staphylococcus aureus, USA300 JE2 ([ref. 28 and 29]) (MRSA) and the gram-negative Escherichia coli, TOP10 (E. coli).[30] Kanamycin[30] was used as a positive control.
(§2) MIC values were established using a […] broth dilution method in cation-adjusted Müller–Hinton (MH) broth. 96-well plates (200 μL of 128 μg mL^–1, 64 μM) complex in MH broth, diluted 2^n μg mL^–1, inoculated with each bacterial strain (10^3 cfu mL^–1) were sealed and growth was monitored over 20 h at 37 °C with an iEMS 96-well plate reader (see ESI ^†).

Escherichia coli, TOP10 = experiment: MIC by broth dilution, E. coli; settings: 20 h at 37 °C in Müller–Hinton broth
Method: as §1, §2

[2] = test system: MDA-MB-468 (human epithelial breast adenocarcinoma); experiment: MTT chemosensitivity (IC50), MDA-MB-468 cells; settings: 96 h exposure, triplicate, mean with standard deviation (esd)
Description: (§3) The activities of the new compounds and cisplatin were investigated in human tumour cell lines: (a) MDA-MB-468 (human epithelial breast adenocarcinoma);[24] (b) HCT116 p53^+/+ and (c) HCT116 p53^–/–.[25] The HCT116 p53^+/+ and HCT116 p53^–/– cancer cells are human colorectal cancer cell lines that are genetically identical (isogenic) except for the presence or absence of functional p53.[25] These were chosen to enable screening of the effects of p53 status as the loss of p53 function is common genetic event in patient tumours and is strongly associated with increased resistance to many conventional chemotherapeutic agents.[25],[26]
(§4) Compounds were added (100 μM to 5 nM in cell medium) for a further 96 h. 3-(4,5-Dimethylthiazol-[…])-2,5-diphenyl tetrazolium bromide solution (0.5 mg mL^–1, 20 μL per well) was added for a final 4 h. Upon completion all solutions were aspirated, dimethyl sulfoxide (150 μl) was added and absorbance (540 nm) was recorded with a Thermo Scientific Multiskan EX microplate photometer. […]
(§5) 0 ×10 3 c el l s / wel l and i nc u bat ed f or24 hat 37 ° C i n an at mos p h er e of5% C O2, p r i ort o d r u gexp os u r e. […]
(§6) C ell med ia (20 0 μ l) was ad d ed to the referenc e c ells and d iffering c onc entrations of d ru g s olu tion (20 0 μ l) were ad d ed to the remaining wells . […]

[3] = test system: HCT116 p53^+/+ (human colon carcinoma, wild type p53); experiment: MTT chemosensitivity (IC50), HCT116 p53+/+ cells; settings: 96 h exposure, triplicate, mean with standard deviation (esd)
Description: as §3, §4, §5, §6

[4] = test system: HCT116 p53^–/– (human colon carcinoma, p53-null); experiment: MTT chemosensitivity (IC50), HCT116 p53-/- cells; settings: 96 h exposure, triplicate, mean with standard deviation (esd)
Description: as §3, §4, §5, §6

[5] = approximate concentration in μM

NC[C@H]1O[C@H](O[C@H]2[C@H](O)[C@@H](O[C@H]3O[C@H](CO)[C@@H](O)[C@H](N)[C@H]3O)[C@H](N)C[C@@H]2N)[C@H](O)[C@@H](O)[C@@H]1O [Kanamycin]
MRSA MIC [1]: 1 μg ml^–1
MRSA MIC [1, 5]: 2 µM
E. coli MIC (Escherichia coli, TOP10): 2 μg ml^–1
E. coli MIC (Escherichia coli, TOP10; [5]): 4 µM

N.N.[Cl][Pt][Cl] [cisplatin]
IC50 [2]: 2.5 ± 0.5 µM
IC50 [3]: 3.5 ± 1.5 µM
IC50 [4]: 8.1 ± 1.8 µM
